Test: Solid form stability of Form II (ambient storage, humidity, water suspension)
Assay type: physicochemical
Protocol: Form II was confirmed as a crystalline solid according to XRPD analysis. The XRPD pattern of Form II is shown in FIG. 17 and the peak data is given below in Table 7. […] The red pattern was recorded after storing Form II for 1 h and 20 min under ambient conditions.
Thermogravimetry coupled to Fourier Transform (TGA-FT) measurements taken during the conversion show a loss of trifluoroethanol above 100° C.

## Cc1ccccc1-c1cc(N2CCN(C)CC2)ncc1N(C)C(=O)C(C)(C)c1cc(C(F)(F)F)cc(C(F)(F)F)c1 [Form II, 2-(3,5-bis(trifluoromethyl)phenyl)-N,2-dimethyl-N-(6-(4-methylpiperazin-1-yl)-4-(o-tolyl)pyridin-3-yl)propanamide]
80% relative humidity
  conversion at 80% relative humidity: convert to Form I
Ambient conditions, XRPD
  stability under ambient conditions: unstable under ambient conditions and converts to Form I
Stored 1 h and 20 min under ambient conditions, XRPD
  conversion after storing under ambient conditions: partial conversion to Form I
Suspension equilibration in water
  conversion upon suspension equilibration in water: convert to Form I
